Source: patent US20070225344A1, “Sulfonamide derivatives to treat infection with hepatitis C virus” (priority 2006, published 2007)

Each compound was assayed against T1, HCV RdRp NS5B d21BK (BK strain, 1b subtype) (Hepatitis C virus genotype 1b, UniProt P26663) (assay: HCV polymerase (NS5B) RNA-dependent RNA polymerase inhibition, 33P-GTP filter assay). Conditions: in vitro; NS5B BK strain (1b subtype), 24 nM enzyme, 2 h at room temperature; read-out: HCV Polymerase Median IC50.
T1 construct: NS5B from the BK strain (1b subtype) is expressed in E. coli as a protein in which the 21 C-terminal amino acids are replaced; made in house; host or cells: E. coli
Assay type: biochemical
Text: The ability of the compounds of the present invention to inhibit hepatitis C polymerase was established by the following experimental procedure:
NS5B from the BK strain (1b subtype) is expressed in E. coli as a protein in which the 21 C-terminal amino acids are replaced with a short linker and a hexahistidine tag (GSHHHHHH). The purified protein is mixed with radioactive nucleotides and allowed to replicate a heteropolymeric RNA substrate, primed by an endogenous short hairpin, resulting in an approximately 760 nt product. The radioactive product is captured on a filter and quantitated after removal of the unincorporated nucleotides.
(1) Compounds 10 μl at 10 μg/ml in 15% DMSO
Add 20 μl enzyme mix into each well of the assay plate. Incubate compound and enzyme at room temperature for 15 minutes.
(3) Template Mix—Prepare Ahead.
Spin down a tube of RNA (5 μg/tube stored in 75% ethanol and 0.3 M sodium acetate) in a microcentrifuge for 20 min. at 4° C. One tube is enough for 1 to 1½ plates. Remove as much ethanol from the tube as possible by inverting the tube. Be gentle, pellet RNA may not adhere to the tube. Vacuum dry the RNA. Resuspend the RNA by adding 1 ml of DEPC water, close the cap of the tube tightly. To dissolve RNA, incubate RNA solution on ice for ˜60 min. and gently vortex. Spin briefly to ensure all RNA solution is down to the bottom of the tube before opening cap. Gently transfer RNA solution into a 5 ml or larger tube. Add another 3 ml of DEPC water (total 4 ml of volume).
Add the following volumes of reagents.
Add 20 μl template mix per reaction (i.e. 20 ng of POF per reaction or ˜3 nM)
(4) Incubate reaction at room temperature (22-25° C.) for 2 hours.
(5) Stop reaction by adding 50 μl of 170 mM EDTA.
Final concentration of EDTA is 85 mM.
(6) Prewet filters of Millipore Multiscreen filter plate by adding 200 μl of 0.5 M sodium phosphate buffer, pH 7.0 into each well. Let stand at room temperature for 2-3 min.
(7) Place the Multiscreen filter plate onto a Millipore Manifold and turn on vacuum to allow buffer to flow through. Turn off vacuum. Transfer 80 μl of the reaction product into each well of the filter plate. Let stand for 2-3 min. Turn on vacuum to filter reaction product.
(8) Turn off vacuum. Add 200 μl of 0.5 M sodium phosphate buffer, pH 7.0 into each well to wash filter. Turn on vacuum.
Repeat step (8) three more times.
(9) Remove polypropylene bottom. Spot dry filter at the bottom with paper towel. Air dry filter plate on a bench for 1 hr. Add 40 μl Super Mix scintillant. Seal top of the plate with a tape. Place plate into a Packard carrier or MicroBeta carrier.
(10) Count plate using a Packard Topcount or MicroBeta counter. Program 10 for ^33P in Top count or ^33P program in micro-beta.
Percent inhibition is calculated after background subtraction as a percent reduction of activity relative to the positive control (average value of the plate excluding the negative controls).

T1 sequence (P26663 2420-2997, looked up, natural form): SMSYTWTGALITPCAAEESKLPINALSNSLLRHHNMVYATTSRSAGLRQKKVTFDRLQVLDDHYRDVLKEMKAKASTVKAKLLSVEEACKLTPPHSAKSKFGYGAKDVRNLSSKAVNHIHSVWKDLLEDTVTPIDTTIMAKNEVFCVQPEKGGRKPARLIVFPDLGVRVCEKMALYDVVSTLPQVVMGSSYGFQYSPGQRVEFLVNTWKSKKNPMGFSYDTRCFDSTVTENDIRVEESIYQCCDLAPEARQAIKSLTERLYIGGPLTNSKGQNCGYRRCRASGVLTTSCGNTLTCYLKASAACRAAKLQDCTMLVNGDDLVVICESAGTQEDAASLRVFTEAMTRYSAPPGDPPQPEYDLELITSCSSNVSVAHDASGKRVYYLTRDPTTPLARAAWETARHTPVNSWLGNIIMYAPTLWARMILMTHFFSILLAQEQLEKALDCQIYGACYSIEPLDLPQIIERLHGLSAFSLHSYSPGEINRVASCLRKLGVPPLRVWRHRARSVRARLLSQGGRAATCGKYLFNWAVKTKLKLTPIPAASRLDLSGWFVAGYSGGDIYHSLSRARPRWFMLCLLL

SMILES | IC50 [µM]
Cc1cc(N)c(S(=O)(=O)N2C[C@H](O)C[C@H]2C(=O)O)cc1Cl [Example 25, (4R)1-[(2-amino-5-chloro-4-methylphenyl)sulfonyl]-4-hydroxy-L-proline] | 7.65
O=C(O)[C@H]1CCCN1S(=O)(=O)c1cc(Cl)cc(Cl)c1O [Example 31, 1-[(3,5-dichloro-2-hydroxyphenyl)sulfonyl]-D-proline] | 6.45
O=C(O)[C@@H]1CCCN1S(=O)(=O)c1cc(Cl)c(Cl)cc1Cl [Example 36, 1-[(2,4,5-trichlorophenyl)sulfonyl]-L-proline] | 21.9
Cc1cc(N)c(S(=O)(=O)N2C[C@@H](O)C[C@@H]2C(=O)O)cc1Cl [Example 19, (4S)-1-[(2-amino-5-chloro-4-methylphenyl)sulfonyl]-4-hydroxy-D-proline] | 4.05
O=C(O)[C@@H]1CCCN1S(=O)(=O)c1cc(Br)cc(Cl)c1O [Example 8, 1-[(5-bromo-3-chloro-2-hydroxyphenyl)sulfonyl]-L-proline] | 0.4
CCC(=O)[C@@H]1CCCN1S(=O)(=O)c1cc(Cl)cc(Cl)c1O [Example 29, 1-{(2S)-1-[(3,5-dichloro-2-hydroxyphenyl)sulfonyl]pyrrolidin-2-yl}propan-1-one] | 7.29
O=C(O)[C@@H]1CCCN1S(=O)(=O)c1cc(Br)cc(Br)c1O [Example 9, 1-[(3,5-dibromo-2-hydroxyphenyl)sulfonyl]-L-proline] | 0.56
Cc1ccc(S(=O)(=O)N2CCC[C@H]2C(=O)O)cc1Cl [Example 35, 1-[(3-chloro-4-methylphenyl)sulfonyl]-L-proline] | 10.2
O=C(O)[C@@H]1C[C@@H](O)CN1S(=O)(=O)c1cc(Cl)c(Cl)c(Cl)c1O [Example 3, (4R)-4-hydroxy-1-[(3,4,5-trichloro-2-hydroxyphenyl)sulfonyl]-L-proline] | 0.07
O=C(O)[C@H]1CSCN1S(=O)(=O)c1cc(Cl)cc(Br)c1O [Example 50, (4S)-3-[(3-bromo-5-chloro-2-hydroxyphenyl)sulfonyl]-1,3-thiazolidine-4-carboxylic acid] | 0.87
O=C(O)[C@H]1CSCN1S(=O)(=O)c1cc(Cl)c(Cl)c(Cl)c1O [Example 46, (4S)-3-[(3,4,5-trichloro-2-hydroxyphenyl)sulfonyl]-1,3-thiazolidine-4-carboxylic acid] | 0.26
O=S(=O)(c1cc(Cl)cc(Cl)c1O)N1CCSC1 [Example 52, 2,4-dichloro-6-(1,3-thiazolidin-3-ylsulfonyl)phenol] | 2.35
Cc1cc(S(=O)(=O)N2C[C@@H](O)C[C@@H]2C(=O)O)c(N)cc1Cl [Example 24, (4S)-1-[(2-amino-4-chloro-5-methylphenyl)sulfonyl]-4-hydroxy-D-proline] | 5.1
O=C(O)[C@@H]1CCCCN1S(=O)(=O)c1cc(F)cc(Cl)c1O [Example 41, (2S)-1-[(3-chloro-5-fluoro-2-hydroxyphenyl)sulfonyl]piperidine-2-carboxylic acid] | 1.89
O=C(O)[C@@H]1C[C@@H](O)CN1S(=O)(=O)c1cc(Cl)cc(Cl)c1O [Example 10, (4R)-1-[(3,5-dichloro-2-hydroxyphenyl)sulfonyl]-4-hydroxy-L-proline] | 0.67
O=C(O)[C@@H]1CSCN1S(=O)(=O)c1cc(Br)cc(Br)c1O [Example 48, (4R)-3-[(3,5-dibromo-2-hydroxyphenyl)sulfonyl]-1,3-thiazolidine-4-carboxylic acid] | 0.46
CO[C@@H]1C[C@@H](C(=O)O)N(S(=O)(=O)c2cc(Cl)cc(Cl)c2O)C1 [Example 12, (4R)-1-[(3,5-dichloro-2-hydroxyphenyl)sulfonyl]-4-methoxy-L-proline] | 0.91
O=C(O)[C@@H]1CCCCN1S(=O)(=O)c1cc(Cl)cc(Br)c1O [Example 39, (2S)-1-[(3-bromo-5-chloro-2-hydroxyphenyl)sulfonyl]piperidine-2-carboxylic acid] | 0.45
